Laboratory results reported in publication PMC6058716, “Two Odorant-Binding Proteins of the Dark Black Chafer (Holotrichia parallela) Display Preferential Binding to Biologically Active Host Plant Volatiles” (Frontiers in Physiology, 2018).
Read-outs that look alike come from different tables or passages of the source.

Assays:
[1] = target: HparOBP20 (Holotrichia parallela, UniProt A0A0G2YKL4); test: Fluorescence competitive binding assay with 1-NPN probe, recombinant HparOBP20
Procedure: (§1) Purification was performed via Ni ion affinity chromatography (GE Healthcare, Beijing, China), and the His-tag was removed using enterokinase for HparOBP20 or tobacco etch virus (TEV) protease for HparOBP49.
(§2) We used an F-380 fluorescence spectrophotometer (Tianjin, China) to determine the results of the perform the binding assay at room temperature (25°C). The excitation wavelength was 337 nm, and the emission spectrum was recorded between 390 and 460 nm.

[2] = target: HparOBP49 (Holotrichia parallela, UniProt A0A0G2YD95); test: Fluorescence competitive binding assay with 1-NPN probe, recombinant HparOBP49
Procedure: as §1, §2

[3] = system: DBC adults; test: Y-tube olfactometer behavioral response; assay type: in vivo, Holotrichia parallela; conditions: 1 μg/μl, T/(T+C); for Selective response rate (%), Female / Selective response rate (%), Male: in Figure 6, letters mark significance
Procedure: The behavioral responses of female and male adults to the putative ligands were tested using a Y-tube olfactometer in a dark room at 27 ± 1°C. A filter paper (25 × 8 mm) with 10 μl of the test compound was placed at the end of one arm of the Y-tube, with 10 μl of methanol at the end of the other arm (control tube). The airflow was 500 ml/min. Six replicates were performed for each stimulant with 10 healthy virgin adults in the main stem of the Y-tube, and 10 min was allowed for their distribution. The response rate was calculated according to the following equations: response rate = (T+C)/SUM and selective response rate = T/(T+C), where T represents the number of beetles in the treatment tube; C indicates the number of beetles in the control tube; and SUM is the number of beetles tested.

[4] = system: DBC adults; test: Field evaluation, baited traps; assay type: in vivo, Holotrichia parallela; conditions: for Attractant ability in traps: result in words; for Male DBCs caught in traps: males, 360 mg per dispenser, mean ± SE, N=3 traps
Procedure: According to the laboratory evaluation, in addition to the main sex pheromone component, L-leucine methyl ester, (Z)-3-hexenyl acetate was considered as a candidate compound for attracting DBC adults in the field. The tested chemicals were individually dissolved with methanol to 360 mg/ml. A dispenser was constructed using oil-free cotton wool with 360 mg of the tested chemical and stored in a freezer before use. Methanol was employed as a control. The treatments were as follows: • - L-leucine methyl ester alone, 360 mg/ml, 1 ml/dispenser • - (Z)-3-hexenyl acetate alone, 360 mg/ml, 1 ml/dispenser • - methanol alone as control, 99% purity, 1 ml/dispenser All experiments were performed at the experimental station of the Shandong Peanut Research Institute, Lai Xi Wang Cheng, Qingdao, China. Traps were placed in middle of the field, and each trap was located 60 m from any other trap, so that the individual treatments were 60 m apart. To avoid cross-contamination, only one compound was tested at each sub-site at any time, and each compound was tested at only one sub-site ([Isberg et al., 2017]). Each trap was set to operate from 1 h before sunset until 1 h after sunset. Three traps (replicates) were selected for each treatment. The test period was June 1–20, 2017. As a rule, the traps were checked every day, and the individuals that were caught in all experiments were sexed.

[5] = system: DBC antennae; test: Electroantennogram (EAG) responses of virgin male/female antennae; design: species or system Holotrichia parallela; conditions: 1 μg/μl, corrected with methanol; for EAG response, males: male antennae
Procedure: The EAG responses of virgin male/female antennae were measured after removing the tips of the three antennal lamellae (at approximately 1 mm) and separating them from each other. The chemicals used for the EAG and behavior assays were diluted in methanol (HPLC grade) to varying concentrations (0.1, 1, and 10 μg/μl), and methanol was used as a control. A 10 μl aliquot of each concentration was applied to a filter paper (25 × 8 mm). EAG responses were recorded for 5 s, with a stimulation interval of 30 s and a flow rate of 4 ml/s for both the stimulant and purge airflow. Each chemical was tested against six antennae, and each antenna was tested with three repeated stimulations. The EAG apparatus consisted of a signal acquisition system (IDAC-4), a micromanipulator assembly (INR-5), a stimulus controller (CS-05), and a system for outputting the EAG results (Syntech Company, Holland).

[6] = calculated from IC50, Ki = [IC50]/(1+[1-NPN]/K1-NPN), read-out: Ki, HparOBP20
[7] = displacement of 2 μM 1-NPN, 2 μM protein, Tris-HCl pH 7.4, 25°C, read-out: IC50, HparOBP20
[8] = displacement of 2 μM 1-NPN, 2 μM protein, Tris-HCl pH 7.4, 25°C, read-out: IC50, HparOBP49
[9] = Ki, HparOBP20, calculated from IC50, Ki = [IC50]/(1+[1-NPN]/K1-NPN)

Chain of HparOBP49 (A0A0G2YD95 entry or part of it): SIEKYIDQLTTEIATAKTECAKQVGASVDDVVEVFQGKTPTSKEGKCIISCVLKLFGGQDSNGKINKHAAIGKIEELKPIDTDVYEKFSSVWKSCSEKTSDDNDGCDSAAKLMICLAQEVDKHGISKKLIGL
Chain of HparOBP20 (A0A0G2YKL4 entry or part of it): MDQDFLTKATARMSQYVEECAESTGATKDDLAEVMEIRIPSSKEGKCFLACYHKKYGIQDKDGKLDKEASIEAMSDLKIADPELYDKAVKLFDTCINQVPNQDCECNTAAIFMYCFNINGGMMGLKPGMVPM

| Molecule | IC50 [1, 7] [µM] | IC50 [2, 8] [µM] | IC50 [1] [µM] | IC50 [2] [µM] | further results |
| --- | --- | --- | --- | --- | --- |
| CCCCC=O [Valeraldehyde] | 31.1 | > 50 | – | – | Ki [1, 6]: 26.1 µM |
| CCc1ccc(C(C)=O)cc1 [4′-Ethylacetophenone] | – | – | > 50 | > 50 | – |
| CC/C=C\CCO [(Z)-3-Hexen-1-ol] | – | – | 30.1 | > 50 | Ki [1, 9]: 25.2 µM |
| CC(=O)c1ccc(C)c(C)c1 [3′,4′-Dimethylacetophenone] | > 50 | > 50 | – | – | – |
| COC(=O)c1ccccc1O [Methyl salicylate] | – | – | 28.5 | > 50 | Ki [1, 9]: 23.8 µM |
| C=C(C)[C@H]1CC=C(C)CC1 [(R)-(+)-Limonene] | 28.7 | > 50 | – | – | Ki [1, 6]: 24 µM |
| CC(C)=CCC/C(C)=C/CC/C(C)=C/CO [Farnesol, mixture of isomers, Farnesol] | > 50 | > 50 | – | – | – |
| CCCCCCCCC=O [Nonanal] | > 50 | > 50 | – | – | – |
| CCCCCC(=O)O [Hexanoic acid] | – | – | 47.2 | 47.6 | Ki [1, 9]: 39.5 µM; Ki [2]: 42.2 µM |
| COC(=O)c1ccccc1 [Methyl benzoate] | – | – | > 50 | > 50 | – |
| CCCCCC=O [1-Hexanal] | – | – | > 50 | > 50 | – |
| CCC/C=C/COC(C)=O [(E)-2-Hexenyl acetate] | 27.8 | > 50 | – | – | Ki [1, 6]: 23.3 µM |
| CCCCCCCCC(=O)O [Nonanoic acid] | > 50 | > 50 | – | – | – |
| O=Cc1ccccc1 [Benzaldehyde] | – | – | > 50 | > 50 | – |
| CC1=CCC2CC1C2(C)C (stereo not drawn) [α-Pinene] | – | – | 26.8 | > 50 | Ki [1, 9]: 22.4 µM |
| OCc1ccccc1 [Benzyl alcohol] | – | – | > 50 | > 50 | – |

| Molecule | IC50 [1, 7] [µM] | IC50 [2, 8] [µM] | IC50 [1] [µM] | IC50 [2] [µM] | further results |
| --- | --- | --- | --- | --- | --- |
| Cn1cccc1 [1-Methylpyrrole] | 26.1 | > 50 | – | – | Ki [1, 6]: 21.9 µM |
| CCCCCCCCO [1-Octanol] | 30.2 | > 50 | – | – | Ki [1, 6]: 25.3 µM |
| Ocimene [Ocimene, mixture of isomers] | > 50 | > 50 | – | – | – |
| CCCCCCCCCCCCCCC [Pentadecane] | 16.5 | > 50 | – | – | Ki [1, 6]: 13.8 µM; Selective response rate (%), Female ([3]; females): 67%; Selective response rate (%), Male ([3]; males): 59%; Attractant ability in traps [4]: low attractant ability |
| CCC/C=C/C=O [(E)-2-Hexenal] | – | – | > 50 | > 50 | – |
| CCCCCCO [1-Hexanol] | > 50 | > 50 | – | – | – |
| CC1=CC[C@H](C(C)C)C=C1 [α-Phellandrene] | – | – | 21.1 | > 50 | Ki [1, 9]: 17.6 µM; Selective response rate (%), Female ([3]; females): 51%; Selective response rate (%), Male ([3]; males): 73%; Attractant ability in traps [4]: low attractant ability |
| CCCCCCCCCCCC=O [Dodecyl aldehyde] | > 50 | > 50 | – | – | – |
| C=C[C@](C)(O)CCC=C(C)C [(R)-(-)-Linalool] | > 50 | > 50 | – | – | – |
| COC(=O)[C@@H](N)CC(C)C.Cl [L-Leucine methyl ester] | > 50 | > 50 | – | – | EAG response, males [5]: 5.68 mV; Selective response rate (%), Female ([3]; females): 0.20c %; Selective response rate, males ([3]; males): 96%; Male DBCs caught in traps [4]: 258 ± 12.860 DBCs |
| CCCCCCCCCCCC [Dodecane] | 48.5 | > 50 | – | – | Ki [1, 6]: 40.6 µM |
| CCC/C=C/CO [(E)-2-Hexen-1-ol] | – | – | > 50 | > 50 | – |
| Farnesene [Farnesene, mixture of isomers] | > 50 | > 50 | – | – | – |
| CC/C=C\CCOC(C)=O [(Z)-3-Hexenyl acetate] | 22.1 | 44.7 | – | – | Ki [1, 6]: 18.5 µM; Ki ([2]; calculated from IC50, Ki = [IC50]/(1+[1-NPN]/K1-NPN), read-out: Ki, HparOBP49): 39.7 µM; EAG response, females ([5]; female antennae): 4.84 mV; EAG response, males [5]: 4.02 mV; Selective response rate, females ([3]; females): 98%; Selective response rate (%), Male ([3]; males): 59%; Male DBCs caught in traps [4]: 83 ± 4.933 DBCs |
| CC/C=C/CCO [(E)-3-Hexen-1-ol] | – | – | 30.3 | > 50 | Ki [1, 9]: 25.4 µM |
| C=C1CC/C=C(\C)CC[C@@H]2[C@@H]1CC2(C)C [β-Caryophyllene] | – | – | > 50 | > 50 | Selective response rate (%), Female ([3]; females): 48% |
